Data from patent US5521173A, “Tricyclic benzazepine vasopressin antagonists” (American Home Products Corporation, priority 1995, dated 1996).

Legend:
Vasopressin V2 = Vasopressin V2 Antagonist Activity in Conscious Hydrated Rats; assay type: in vivo, rat; details: 10 mg/kg orally, AVP 0.4 μg/kg i.p.; for Osmolality: urine
Description: Two to four rats are used for each compound. One hour later, arginine vasopressin (AVP, antidiuretic hormore, ADH) dissolved in peanut oil is administered at 0.4 μg/kg intraperitoneally. Two rats in each test would not receive arginine vasopressin but only the vehicle (peanut oil) to serve as water-loading control. Twenty minutes later each rat is given 30 mL/kg of deionized water orally by gavage and is placed individually in a metabolic cage equipped with a funnel and a graduated glass cylinder to collect urine for four hours. Urine volume is measured and osmolality analyzed by use of a Fiske One-Ten osmometer (Fiske Assoc., Norwood, Mass., USA). Urinary sodium, potassium, and chloride are analyzed by use of ion-specific electrodes in a Beckman E3 (Electrolyte 3) Analyzer. In the following results, […] and decreased osmolality relative to AVP-control indicates activity.

[1] = target: T1, Vasopressin V1 receptor subtype in Human Platelet Membranes (Homo sapiens, UniProt P37288); assay: Binding to Vasopressin V1 receptor subtype in Human Platelet Membranes
T1 construct: tissue Hudson Valley Blood Services, Westchester Medical Center, Valhalla, N.Y; host or cells: human platelets (frozen platelet rich plasma)
Description: Radioligand Binding Experiments with Human Platelet Membranes
(a) Platelet Membrane Preparation
Frozen platelet rich plasma (PRP), (Platelet Source: Hudson Valley Blood Services, Westchester Medical Center, Valhalla, N.Y.) are thawed to room temperature. The tubes containing the PRP are centrifuged at 16,000×g for 10 min. at 4° C. and the supernatant fluid discarded. The platelets resuspended in an equal volume of 50.0 mM Tris.HCl, pH 7.5 containing 120 mM NaCl and 20.0 mM EDTA. The suspension is recentrifuged at 16,000× g for 10 min. This washing step is repeated one more time. The wash discarded and the lysed pellets homogenized in low ionic strength buffer of Tris.HCl, 5.0 mM, pH 7.5 containing 5.0 mM EDTA. The homogenate is centrifuged at 39,000× g for 10 min. The resulting pellet is resuspended in Tris.HCl buffer, 70.0 mM, pH 7.5 and recentrifuged at 39,000× g for 10 min. The final pellet is resuspended in 50.0 mM Tris.HCl buffer pH 7.4 containing 120 mM NaCl and 5.0 mM KCl to give 1.0-2.0 mg protein per ml of suspension.
(b) Binding to Vasopressin V1 receptor subtype in Human Platelet Membranes
In wells of a 96 well format microtiter plate, add 100 μl of 50.0 mM Tris.HCl buffer containing 0.2% BSA and a mixture of protease inhibitors (aprotinin, leupeptin etc.). Then add 20 μl of [^3 H]Ligand (Manning or Arg^8 Vasopressin), to give final concentrations ranging from 0.01 to 10.0 nM. Initiate the binding by adding 80.0 μl of platelet suspension (approx. 100 μg protein). Mix all reagents by pipetting the mixture up and down a few times. Non specific binding is measured in the presence of 1.0 µM of unlabeled ligand (Manning or Arg^8 Vasopressin). Let the mixture stand undisturbed at room temperature for ninety (90) min. Upon this time, rapidly filter off the incubate under vacuum suction over GF/B filters, using a Brandel Harvester. Determine the radioactivity caught on the filter disks by the addition of liquid scintillant and counting in a liquid scintillator.

[2] = target: T2, Human V2 Vasopressin Receptor (Homo sapiens, UniProt P30518); assay: Binding to Membranes of Mouse Fibroblast Cell Line (LV-2) Transfected with the cDNA Expressing the Human V2 Vasopressin Receptor; details: ** LV-2 cell membranes
T2 construct: expressed in transfected cells; host or cells: mouse fibroblast cell line LV-2
Description: (a) Membrane Preparation Flasks of 175 ml capacity, containing attached cells grown to confluence, are cleared of culture medium by aspiration. […] The content of all flasks is poured into a centrifuge tube and the cells pelleted at 300× g for 15 min. The Hank's based solution is aspirated off and the cells homogenized with a polytron at setting #6 for 10 sec in 10.0 mM Tris.HCl buffer, pH 7.4 containing 0.25M sucrose and 1.0 mM EDTA. The homogenate is centrifuged at 1500× g for 10 min to remove ghost membranes. The supernatant fluid is centrifuged at 100,000× g for 60 min to pellet the receptor protein. […] (b) Receptor Binding […] Non specific binding is assessed in the presence of 1.0 μM of unlabeled ligand, added in 20 μl volume. […] The radioactivity trapped on the filter disk by the ligand-receptor complex is assessed by liquid scintillation counting in a Packard LS Counter, with an efficiency of 65% for tritium. The data are analyzed for IC50 values by the LUNDON-2 program for competition (LUNDON SOFTWARE, Ohio).

T1 sequence (P37288 whole entry): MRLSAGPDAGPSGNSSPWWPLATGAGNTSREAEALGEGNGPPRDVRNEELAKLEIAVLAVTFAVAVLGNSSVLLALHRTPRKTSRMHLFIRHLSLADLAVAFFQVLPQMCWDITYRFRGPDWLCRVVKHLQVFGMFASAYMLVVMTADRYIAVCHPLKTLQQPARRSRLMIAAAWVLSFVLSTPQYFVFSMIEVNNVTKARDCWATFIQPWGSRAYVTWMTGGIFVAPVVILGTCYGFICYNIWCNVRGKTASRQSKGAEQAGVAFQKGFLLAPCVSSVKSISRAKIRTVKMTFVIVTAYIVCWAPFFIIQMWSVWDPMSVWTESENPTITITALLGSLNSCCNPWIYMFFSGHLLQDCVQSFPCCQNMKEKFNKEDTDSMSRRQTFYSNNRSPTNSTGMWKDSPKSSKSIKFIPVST
T2 sequence (P30518 whole entry): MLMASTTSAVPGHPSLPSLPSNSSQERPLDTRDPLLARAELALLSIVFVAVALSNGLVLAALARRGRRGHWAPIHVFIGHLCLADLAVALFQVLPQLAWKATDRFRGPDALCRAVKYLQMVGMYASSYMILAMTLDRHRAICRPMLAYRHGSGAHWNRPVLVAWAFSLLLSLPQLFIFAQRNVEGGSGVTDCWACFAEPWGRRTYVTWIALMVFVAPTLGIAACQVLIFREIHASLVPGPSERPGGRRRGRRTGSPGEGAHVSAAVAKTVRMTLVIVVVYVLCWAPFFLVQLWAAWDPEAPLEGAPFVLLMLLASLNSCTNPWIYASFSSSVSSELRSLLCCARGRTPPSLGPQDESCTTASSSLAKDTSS

Row | IC50 [1] | IC50 [2] | Structure (SMILES) | Urine Volume (Vasopressin V2) | Osmolality (Vasopressin V2)
1 | – | – | O=C(c1ccc(-c2ccccn2)cc1)N1Cc2cccn2Cc2ccccc21 [Example 9, 10,11-Dihydro-10-[4-(2-pyridinyl)benzoyl]-5H-pyrrolo[2,1-c][1,4]benzodiazepine] | 8.3 ml/4 hrs | 857 mOsm/kg
2 | – | – | O=C(c1ccc(-c2ccccc2C(F)(F)F)cc1)N1Cc2cccn2Cc2ccccc21 [Example 8] | 8 ml/4 hrs | 887 mOsm/kg
3 | 14 nM | 1700 nM | O=C(c1ccc(-c2ccccc2)cc1)N1Cc2ccnn2Cc2ccccc21 [Example 7, 5-([1,1'-Biphenyl]-4-ylcarbonyl)-5,10-dihydro-4H-pyrazolo[5,1-c][1,4]benzodiazepine] | 7.5 ml/4 hrs | 1005 mOsm/kg
4 | 85 nM | 2500 nM | O=C(c1ccc(-c2cc(F)cc(F)c2)cc1)N1Cc2cccn2Cc2ccccc21 [Example 3, 10,11-Dihydro-10-[4-(3,5-difluorophenyl)benzoyl]-5H-pyrrolo[2,1-c][1,4]benzodiazepine] | 5.9 ml/4 hrs | 1205 mOsm/kg
5 | 2.9 nM | 390 nM | O=C(c1ccc(-c2ccccc2)cc1)N1Cc2cccn2Cc2ccccc21 [Example 19, 10-([1,1'-Biphenyl]-4-ylcarbonyl)-10,11-dihydro-5H-pyrrolo[2,1-c][1,4]benzodiazepine] | 3.5 ml/4 hrs | 1598 mOsm/kg
